# Results as given in publication PMC5218480 (PLoS ONE, 2017).
# Test system: MV-4-11 cells
# Assay: Gene expression microarray analysis (Affymetrix PrimeView) and GSEA
# Format: cell-based, human
# Design: RFU PODN (11730768_x_at) / Fold change /veh PODN (11730768_x_at) / RFU LINC00158 (11744669_a_at) / Fold change /veh LINC00158 (11744669_a_at) / RFU DUSP10 (11751237_a_at) / Fold change /veh DUSP10 (11751237_a_at) / RFU ID3 (11757404_x_at) / Fold change /veh ID3 (11757404_x_at) / RFU PLEKHG5 (11737974_s_at) / Fold change /veh PLEKHG5 (11737974_s_at) / RFU LRRC4B (11730491_at) / Fold change /veh LRRC4B (11730491_at) / RFU GIMAP4 (11747438_a_at) / Fold change /veh GIMAP4 (11747438_a_at) / RFU KRT8 (11758183_x_at) / Fold change /veh KRT8 (11758183_x_at) / RFU CNN1 (11734310_a_at) / Fold change /veh CNN1 (11734310_a_at) / RFU VPS37D (11726825_at) / Fold change /veh VPS37D (11726825_at) / RFU C10orf10 (11716522_x_at) / Fold change /veh C10orf10 (11716522_x_at) / RFU KIR2DL2 /// KIR2DL4 /// KIR2DL5A /// KIR2DL5B /// KIR2DS1 /// KIR2DS2 /// KIR2DS3 /// KIR2DS4 /// KIR3DL3 /// KIR3DL3 /// KIR3DS1 (11738374_at) / Fold change /veh KIR2DL2 /// KIR2DL4 /// KIR2DL5A /// KIR2DL5B /// KIR2DS1 /// KIR2DS2 /// KIR2DS3 /// KIR2DS4 /// KIR3DL3 /// KIR3DL3 /// KIR3DS1 (11738374_at) / RFU C1QL1 (11718748_at) / Fold change /veh C1QL1 (11718748_at) / RFU TMPRSS4 (11747572_a_at) / Fold change /veh TMPRSS4 (11747572_a_at) / RFU HAMP (11756126_x_at) / Fold change /veh HAMP (11756126_x_at) / RFU RNFT2 (11725882_a_at) / Fold change /veh RNFT2 (11725882_a_at) / RFU NR4A2 (11747474_a_at) / Fold change /veh NR4A2 (11747474_a_at) / RFU ABCC12 (11746883_a_at) / Fold change /veh ABCC12 (11746883_a_at) / RFU TMEM136 (11760407_x_at) / Fold change /veh TMEM136 (11760407_x_at) / RFU CLDN22 /// WWC2 (11732394_at) / Fold change /veh CLDN22 /// WWC2 (11732394_at) / RFU HLA-DPB1 (11760878_x_at) / Fold change /veh HLA-DPB1 (11760878_x_at) / RFU SPINT1 (11716480_a_at) / Fold change /veh SPINT1 (11716480_a_at) / RFU GAP43 (11754022_s_at) / Fold change /veh GAP43 (11754022_s_at) / RFU A4GNT (11735810_at) / Fold change /veh A4GNT (11735810_at) / RFU PRB3 (11715151_x_at) / Fold change /veh PRB3 (11715151_x_at) / RFU TUBB4B (11761932_at) / Fold change /veh TUBB4B (11761932_at) / RFU CAPN14 (11732068_a_at) / Fold change /veh CAPN14 (11732068_a_at) / RFU TMCC2 (11721928_a_at) / Fold change /veh TMCC2 (11721928_a_at) / RFU IRGQ (11745062_a_at) / Fold change /veh IRGQ (11745062_a_at) / RFU FAM174B (11720279_a_at) / Fold change /veh FAM174B (11720279_a_at) / RFU TMPRSS4 (11748680_a_at) / Fold change /veh TMPRSS4 (11748680_a_at) / RFU FAM212B (11763350_a_at) / Fold change /veh FAM212B (11763350_a_at) / RFU PLEKHG5 (11743358_a_at) / Fold change /veh PLEKHG5 (11743358_a_at) / RFU ZSCAN30 (11745921_a_at) / Fold change /veh ZSCAN30 (11745921_a_at) / RFU CMKLR1 (11741424_a_at) / Fold change /veh CMKLR1 (11741424_a_at) / RFU LOC101060620 /// MAPK8IP1 (11723275_at) / Fold change /veh LOC101060620 /// MAPK8IP1 (11723275_at) / RFU SPTSSB (11747773_x_at) / Fold change /veh SPTSSB (11747773_x_at) / RFU PRSS12 (11739890_at) / Fold change /veh PRSS12 (11739890_at) / RFU BIN1 (11741810_x_at) / Fold change /veh BIN1 (11741810_x_at) / RFU WNT11 (11732464_a_at) / Fold change /veh WNT11 (11732464_a_at) / RFU C10orf10 (11716521_a_at) / Fold change /veh C10orf10 (11716521_a_at) / RFU C5orf56 (11738089_at) / Fold change /veh C5orf56 (11738089_at) / RFU CYB561 (11721691_x_at) / Fold change /veh CYB561 (11721691_x_at) / RFU ANKRD19P (11752326_a_at) / Fold change /veh ANKRD19P (11752326_a_at) / RFU OR2T12 /// OR2T33 /// OR2T8 (11738714_s_at) / Fold change /veh OR2T12 /// OR2T33 /// OR2T8 (11738714_s_at) / RFU VCAN (11748164_a_at) / Fold change /veh VCAN (11748164_a_at) / RFU JSRP1 (11732532_at) / Fold change /veh JSRP1 (11732532_at) / RFU KRTAP10-11 (11738290_x_at) / Fold change /veh KRTAP10-11 (11738290_x_at) / RFU MYO3A (11730013_a_at) / Fold change /veh MYO3A (11730013_a_at) / RFU EBF3 (11725865_a_at) / Fold change /veh EBF3 (11725865_a_at) / RFU CAMK2N1 (11719241_x_at) / Fold change /veh CAMK2N1 (11719241_x_at) / RFU C5orf56 (11738088_a_at) / Fold change /veh C5orf56 (11738088_a_at) / RFU OLFML3 (11715873_a_at) / Fold change /veh OLFML3 (11715873_a_at) / RFU LOC100653217 /// NTM (11731650_a_at) / Fold change /veh LOC100653217 /// NTM (11731650_a_at) / RFU MAPK11 (11762145_a_at) / Fold change /veh MAPK11 (11762145_a_at) / RFU FIZ1 (11724087_x_at) / Fold change /veh FIZ1 (11724087_x_at) / RFU OASL (11726364_x_at) / Fold change /veh OASL (11726364_x_at) / RFU SOX15 (11748057_x_at) / Fold change /veh SOX15 (11748057_x_at) / RFU CD79A (11719716_a_at) / Fold change /veh CD79A (11719716_a_at) / RFU HIST1H1D (11736915_at) / Fold change /veh HIST1H1D (11736915_at) / RFU CASKIN2 (11723855_a_at) / Fold change /veh CASKIN2 (11723855_a_at) / RFU LOC730098 (11760151_x_at) / Fold change /veh LOC730098 (11760151_x_at) / RFU OR4N2 (11742367_at) / Fold change /veh OR4N2 (11742367_at) / RFU PRRT2 (11749266_a_at) / Fold change /veh PRRT2 (11749266_a_at) / RFU SNX32 (11753110_a_at) / Fold change /veh SNX32 (11753110_a_at) / RFU CDHR5 (11726645_a_at) / Fold change /veh CDHR5 (11726645_a_at) / RFU RCAN1 (11760418_a_at) / Fold change /veh RCAN1 (11760418_a_at) / RFU FAM167A (11723789_a_at) / Fold change /veh FAM167A (11723789_a_at) / RFU FAM26E (11764081_at) / Fold change /veh FAM26E (11764081_at) / RFU ISYNA1 (11749810_s_at) / Fold change /veh ISYNA1 (11749810_s_at) / RFU ACY1 (11761880_at) / Fold change /veh ACY1 (11761880_at) / RFU 11764098_at / Fold change /veh 11764098_at / RFU SAMD14 (11745864_x_at) / Fold change /veh SAMD14 (11745864_x_at) / RFU NPB (11741838_a_at) / Fold change /veh NPB (11741838_a_at) / RFU TMPRSS6 (11731388_a_at) / Fold change /veh TMPRSS6 (11731388_a_at) / RFU KRTAP10-2 (11738614_at) / Fold change /veh KRTAP10-2 (11738614_at) / RFU ARHGAP8 /// PRR5-ARHGAP8 (11727945_x_at) / Fold change /veh ARHGAP8 /// PRR5-ARHGAP8 (11727945_x_at) / RFU KRTAP5-7 /// NADSYN1 (11734609_at) / Fold change /veh KRTAP5-7 /// NADSYN1 (11734609_at) / RFU RASL12 (11751679_a_at) / Fold change /veh RASL12 (11751679_a_at) / RFU CDKN2B (11736163_a_at) / Fold change /veh CDKN2B (11736163_a_at) / RFU PRF1 (11729649_at) / Fold change /veh PRF1 (11729649_at) / RFU, ZNF638 /// ZNF638-IT1 / Fold change vs veh, ZNF638 /// ZNF638-IT1 / RFU, PANK3 / Fold change vs veh, PANK3 / RFU, SH3YL1 / Fold change vs veh, SH3YL1 / RFU, ZEB2 / Fold change vs veh, ZEB2 / RFU, NRIP1 / Fold change vs veh, NRIP1 / RFU, PTTG1IP / Fold change vs veh, PTTG1IP / RFU, CAPN2 / Fold change vs veh, CAPN2 / RFU, MED14 / Fold change vs veh, MED14 / RFU, SNORA58 / Fold change vs veh, SNORA58 / RFU, C1orf63 / Fold change vs veh, C1orf63 / RFU, LRRFIP1 / Fold change vs veh, LRRFIP1 / RFU, NDUFAF7 / Fold change vs veh, NDUFAF7 / RFU, SLC12A2 / Fold change vs veh, SLC12A2 / RFU, IBTK / Fold change vs veh, IBTK / RFU, ESF1 / Fold change vs veh, ESF1 / Fold change vs veh, TMEM50B / RFU, TAOK1 / Fold change vs veh, TAOK1 / RFU, ACBD3 / Fold change vs veh, ACBD3 / RFU, TMA16 / Fold change vs veh, TMA16 / RFU, RWDD3 / Fold change vs veh, RWDD3 / RFU, BCAT1 / Fold change vs veh, BCAT1 / RFU, EDEM3 / Fold change vs veh, EDEM3 / RFU, TMEM33 / Fold change vs veh, TMEM33 / RFU, WDR75 / Fold change vs veh, WDR75 / RFU, AHCTF1 / Fold change vs veh, AHCTF1 / RFU, TFRC / Fold change vs veh, TFRC / RFU, ZDHHC17 / Fold change vs veh, ZDHHC17 / RFU, NOM1 / Fold change vs veh, NOM1 / RFU, ARL8B / Fold change vs veh, ARL8B / RFU, ZBTB11 / Fold change vs veh, ZBTB11 / RFU, TAMM41 / Fold change vs veh, TAMM41 / RFU, KIAA1704 /// LOC100996395 / Fold change vs veh, KIAA1704 /// LOC100996395 / RFU, ING1 / Fold change vs veh, ING1 / RFU, TRMT61B / Fold change vs veh, TRMT61B / RFU, FUBP3 / Fold change vs veh, FUBP3 / RFU, TP53 / Fold change vs veh, TP53 / RFU, TNKS2 / Fold change vs veh, TNKS2 / RFU, ZFP14 / Fold change vs veh, ZFP14 / RFU, ACTR2 / Fold change vs veh, ACTR2 / RFU, PPP3R1 / Fold change vs veh, PPP3R1 / RFU, PIK3R1 / Fold change vs veh, PIK3R1 / RFU, HNRNPA1 / Fold change vs veh, HNRNPA1 / RFU, RNF170 / Fold change vs veh, RNF170 / RFU, ZNF28 / Fold change vs veh, ZNF28 / RFU, RNGTT / Fold change vs veh, RNGTT / RFU, OGT / Fold change vs veh, OGT / RFU, BRD1 / Fold change vs veh, BRD1 / RFU, MARS / Fold change vs veh, MARS / RFU, ZNF655 / Fold change vs veh, ZNF655 / RFU, FAHD1 / Fold change vs veh, FAHD1 / RFU, BDP1 / Fold change vs veh, BDP1 / RFU, LRRCC1 / Fold change vs veh, LRRCC1 / RFU, ARID1A / Fold change vs veh, ARID1A / RFU, ZNF146 / Fold change vs veh, ZNF146 / RFU, ZNF330 / Fold change vs veh, ZNF330 / RFU, GPN3 / Fold change vs veh, GPN3 / RFU, C9orf123 / Fold change vs veh, C9orf123 / RFU, N4BP2L2 / Fold change vs veh, N4BP2L2 / RFU, ARFIP1 / Fold change vs veh, ARFIP1 / RFU, FAM179B / Fold change vs veh, FAM179B / RFU, BCL10 / Fold change vs veh, BCL10 / RFU, UHRF1BP1L / Fold change vs veh, UHRF1BP1L / RFU, BET1 / Fold change vs veh, BET1 / RFU, CNOT2 / Fold change vs veh, CNOT2 / RFU, ZNF268 / Fold change vs veh, ZNF268 / Fold change vs veh, ZNF507 / RFU, DGCR2 / Fold change vs veh, DGCR2 / RFU, WDSUB1 / Fold change vs veh, WDSUB1 / Fold change vs veh, HSP90B1 /// MIR3652 / RFU, ADSS / Fold change vs veh, ADSS / RFU, GK / Fold change vs veh, GK / RFU, ZNF148 / Fold change vs veh, ZNF148 / RFU, TAF9 / Fold change vs veh, TAF9 / RFU, SLC1A5 / Fold change vs veh, SLC1A5 / RFU, SLMO2 / Fold change vs veh, SLMO2 / RFU, ABCC4 / Fold change vs veh, ABCC4 / RFU, LOC101060439 /// RAP1B / Fold change vs veh, LOC101060439 /// RAP1B / RFU, RFX7 / Fold change vs veh, RFX7 / RFU, GTPBP10 / Fold change vs veh, GTPBP10 / RFU, CNEP1R1 / Fold change vs veh, CNEP1R1 / RFU, BIVM-ERCC5 /// ERCC5 / Fold change vs veh, BIVM-ERCC5 /// ERCC5 / RFU, ILF3 / Fold change vs veh, ILF3 / RFU 11762660_at / Fold change /veh 11762660_at / RFU VCAN (11757783_s_at) / Fold change /veh VCAN (11757783_s_at) / RFU DDX43 (11728927_at) / Fold change /veh DDX43 (11728927_at) / RFU KRT8 (11758188_x_at) / Fold change /veh KRT8 (11758188_x_at) / RFU NKD1 (11759106_at) / Fold change /veh NKD1 (11759106_at) / RFU SRD5A1 (11742802_a_at) / Fold change /veh SRD5A1 (11742802_a_at) / RFU TPSAB1 /// TPSB2 (11721975_s_at) / Fold change /veh TPSAB1 /// TPSB2 (11721975_s_at) / RFU GSTM3 (11746129_a_at) / Fold change /veh GSTM3 (11746129_a_at) / RFU IL23R (11737362_x_at) / Fold change /veh IL23R (11737362_x_at) / RFU TMEM51 (11727254_a_at) / Fold change /veh TMEM51 (11727254_a_at) / RFU PIWIL2 (11732686_x_at) / Fold change /veh PIWIL2 (11732686_x_at) / RFU ORM1 (11744905_x_at) / Fold change /veh ORM1 (11744905_x_at) / RFU CCDC152 (11743942_at) / Fold change /veh CCDC152 (11743942_at) / RFU ECM1 (11717891_a_at) / Fold change /veh ECM1 (11717891_a_at) / RFU IL23R (11748794_a_at) / Fold change /veh IL23R (11748794_a_at) / RFU TNFAIP8L3 (11732012_x_at) / Fold change /veh TNFAIP8L3 (11732012_x_at) / RFU MBOAT4 (11741988_at) / Fold change /veh MBOAT4 (11741988_at) / RFU 11764193_at / Fold change /veh 11764193_at / RFU TMEM53 (11763286_at) / Fold change /veh TMEM53 (11763286_at) / RFU MAGEB2 (11727129_at) / Fold change /veh MAGEB2 (11727129_at) / RFU TMEM200A (11744735_a_at) / Fold change /veh TMEM200A (11744735_a_at) / RFU CCDC152 (11751479_a_at) / Fold change /veh CCDC152 (11751479_a_at) / RFU FAM211A (11726209_a_at) / Fold change /veh FAM211A (11726209_a_at) / RFU RGS16 (11746705_a_at) / Fold change /veh RGS16 (11746705_a_at) / RFU VCAN (11755009_s_at) / Fold change /veh VCAN (11755009_s_at) / RFU RHOB (11743442_s_at) / Fold change /veh RHOB (11743442_s_at) / RFU RGS16 (11720943_a_at) / Fold change /veh RGS16 (11720943_a_at) / RFU RGS16 (11720944_at) / Fold change /veh RGS16 (11720944_at) / RFU, VPS4B / Fold change vs veh, VPS4B / RFU, CREB1 / Fold change vs veh, CREB1 / RFU, DNAJC13 / Fold change vs veh, DNAJC13 / RFU, GNAQ / Fold change vs veh, GNAQ / RFU, CDK5R1 / Fold change vs veh, CDK5R1 / RFU, ZRANB3 / Fold change vs veh, ZRANB3 / RFU, CUL4A / Fold change vs veh, CUL4A / RFU, CCNY / Fold change vs veh, CCNY / RFU, UFL1 / Fold change vs veh, UFL1 / RFU, COG3 / Fold change vs veh, COG3 / RFU, DIAPH2 / Fold change vs veh, DIAPH2 / RFU, SKA2 / Fold change vs veh, SKA2 / RFU, AFF3 / Fold change vs veh, AFF3 / RFU, LMF1 / Fold change vs veh, LMF1 / RFU, IPO11 / Fold change vs veh, IPO11 / RFU, DFFB / Fold change vs veh, DFFB / RFU, FOXP1 / Fold change vs veh, FOXP1 / RFU, CARD8 / Fold change vs veh, CARD8 / RFU, STRN3 / Fold change vs veh, STRN3 / RFU, ADK / Fold change vs veh, ADK / RFU, RASSF2 / Fold change vs veh, RASSF2 / RFU, WIPF1 / Fold change vs veh, WIPF1 / RFU, LARP1B / Fold change vs veh, LARP1B / RFU, RASA1 / Fold change vs veh, RASA1 / RFU, RB1 / Fold change vs veh, RB1 / RFU, PPFIA1 / Fold change vs veh, PPFIA1 / RFU, MAT2A / Fold change vs veh, MAT2A / RFU, CCT5 / Fold change vs veh, CCT5 / RFU, WDR92 / Fold change vs veh, WDR92 / RFU, CUX1 / Fold change vs veh, CUX1 / RFU, TTC7A / Fold change vs veh, TTC7A / RFU, TMEM135 / Fold change vs veh, TMEM135 / RFU, DEPTOR / Fold change vs veh, DEPTOR / RFU, CPM / Fold change vs veh, CPM / RFU, DNAJB6 / Fold change vs veh, DNAJB6 / RFU, CACNA2D3 / Fold change vs veh, CACNA2D3 / RFU, DTX4 / Fold change vs veh, DTX4 / RFU, TFCP2 / Fold change vs veh, TFCP2 / RFU, GMCL1 /// GMCL1P1 / Fold change vs veh, GMCL1 /// GMCL1P1 / RFU, AEBP2 / Fold change vs veh, AEBP2 / RFU, SNHG1 /// SNORD22 /// SNORD25 /// SNORD26 /// SNORD27 /// SNORD28 /// SNORD29 /// SNORD31 / Fold change vs veh, SNHG1 /// SNORD22 /// SNORD25 /// SNORD26 /// SNORD27 /// SNORD28 /// SNORD29 /// SNORD31 / Fold change (Aza/veh), C12orf56 (ProbeSet 11735607_a_at) / Fold change (ACY-1035/veh), C12orf56 (ProbeSet 11735607_a_at) / Fold change (Aza/veh), FGFR1OP (ProbeSet 11751329_s_at) / Fold change (ACY-1035/veh), FGFR1OP (ProbeSet 11751329_s_at) / Fold change (Aza/veh), VPS36 (ProbeSet 11739960_a_at) / Fold change (ACY-1035/veh), VPS36 (ProbeSet 11739960_a_at) / RFU SYPL1 (11715823_x_at) / Fold change /veh SYPL1 (11715823_x_at) / RFU IGFBP7 (11715501_s_at) / Fold change /veh IGFBP7 (11715501_s_at) / RFU REEP3 (11722064_at) / Fold change /veh REEP3 (11722064_at) / RFU IGLL1 (11728026_x_at) / Fold change /veh IGLL1 (11728026_x_at): dose or concentration left out as unconfirmed
# Settings: MV-4-11 cells, 48 hours
smiles,measurement,value
Nc1ccc(-c2cccs2)cc1NC(=O)c1ccc2c(c1)cc(C1CC1)n2CCN1CCOCC1 [ACY-1035],Fold change /veh GAP43 (11754022_s_at),0.88
